Laboratory results as given in ChEMBL document CHEMBL3813627, “Preventive effect of a novel diosgenin derivative on arterial and venous thrombosis in vivo” (Bioorg Med Chem Lett, 2016).
The source made the active and inactive calls. The rule behind the calls is not given here.

Key:
[1] = system: Mus musculus; assay: Toxicity in Balb/c mouse assessed as white blood cell count at 92.1 mg/kg, ig bid for 7 days (reference value: 7.7 +/- 0.65 10^9/L); assay type: organism-based; conditions: in vivo, po, 168 h
[2] = system: Mus musculus; assay: Toxicity in Balb/c mouse assessed as hemoglobin count at 92.1 mg/kg, ig bid for 7 days (reference value: 143 +/- 11.9 g/L); assay type: organism-based; conditions: in vivo, po, 168 h
[3] = system: Mus musculus; assay: Toxicity in Balb/c mouse assessed as hematocrit at 92.1 mg/kg, ig bid for 7 days (reference value: 40.5 +/- 3.5 %); assay type: organism-based; conditions: in vivo, po, 168 h
[4] = system: Mus musculus; assay: Hepatotoxicity in Balb/c mouse assessed as changes in serum GPT level at 92.1 to 575.5 mg/kg, po administered as single dose for 7 days; assay type: toxicity, organism-based; conditions: in vivo, 168 h
[5] = organism: Rattus norvegicus; assay: Gastric toxicity in Sprague-Dawley rat assessed as gastric mucosal damage score treated for 49 days by hematoxylin and eosin staining based microscopic analysis; assay type: organism-based, Gastric mucosa; conditions: in vivo, 1176 h
[6] = organism: Rattus norvegicus; assay: Gastric toxicity in Sprague-Dawley rat assessed as angiogenesis treated for 49 days by hematoxylin and eosin staining based microscopic analysis; assay type: organism-based; conditions: in vivo, 1176 h
[7] = organism: Rattus norvegicus; assay: Gastric toxicity in Sprague-Dawley rat assessed as fibrotic changes treated for 49 days by hematoxylin and eosin staining based microscopic analysis; assay type: organism-based; conditions: in vivo, 1176 h
[8] = system: Mus musculus; assay: Toxicity in Balb/c mouse assessed as mortality at 92.1 to 575.5 mg/kg, po administered as single dose for 7 days; assay type: organism-based; conditions: in vivo, 168 h
[9] = system: Mus musculus; assay: Hepatotoxicity in Balb/c mouse assessed as changes in serum GOT level at 92.1 to 575.5 mg/kg, po administered as single dose for 7 days; assay type: toxicity, organism-based; conditions: in vivo, 168 h
[10] = system: Mus musculus; assay: Hepatotoxicity in Balb/c mouse assessed as histopathological changes at 92.1 to 575.5 mg/kg, po administered as single dose for 7 days by hematoxylin and eosin staining based microscopic analysis; assay type: toxicity, organism-based; conditions: in vivo, 168 h
[11] = system: Rattus norvegicus; assay: Antiplatelet activity in platelet-rich plasma isolated from Sprague-Dawley rat assessed as ADP-induced platelet aggregation at 64 mg/kg, ig bid for 7 days measured for 5 mins by light transmission aggregometry (reference value: 57.57 +/- 2.43 %); assay type: functional
[12] = system: Rattus norvegicus; assay: Anticoagulant activity in platelet-rich plasma isolated from Sprague-Dawley rat assessed as activated partial thromboplastin time at 64 mg/kg, ig bid for 7 days (reference value: 17.6 +/- 0.92 secs); assay type: functional
[13] = system: Rattus norvegicus; assay: Antiplatelet activity in platelet-rich plasma isolated from ig dosed Sprague-Dawley rat assessed as inhibition of ADP-induced platelet aggregation administered bid for 7 days measured for 5 mins by light transmission aggregometry; assay type: functional, organism-based
[14] = system: Rattus norvegicus; assay: Anticoagulant activity in platelet-rich plasma isolated from Sprague-Dawley rat assessed as prothrombin time at 64 mg/kg, ig bid for 7 days (reference value: 11.6 +/- 0.98 secs); assay type: functional
[15] = system: Rattus norvegicus; assay: Anticoagulant activity in platelet-rich plasma isolated from Sprague-Dawley rat assessed as thrombin time at 64 mg/kg, ig bid for 7 days (reference value: 47.1 +/- 3.1 secs); assay type: functional
[16] = system: Rattus norvegicus; assay: In vivo activation of coagulation factor8 in Sprague-Dawley rat at 64 mg/kg, ig bid for 7 days by automated coagulometry; assay type: functional, organism-based
[17] = system: Rattus norvegicus; assay: In vivo activation of coagulation factor9 in Sprague-Dawley rat at 64 mg/kg, ig bid for 7 days by automated coagulometry; assay type: functional, organism-based
[18] = system: Rattus norvegicus; assay: In vivo activation of coagulation factor10 in Sprague-Dawley rat at 64 mg/kg, ig bid for 7 days by automated coagulometry; assay type: functional, organism-based
[19] = system: Rattus norvegicus; assay: In vivo activation of coagulation factor11 in Sprague-Dawley rat at 64 mg/kg, ig bid for 7 days by automated coagulometry; assay type: functional, organism-based
[20] = system: Rattus norvegicus; assay: In vivo activation of coagulation factor12 in Sprague-Dawley rat at 64 mg/kg, ig bid for 7 days by automated coagulometry; assay type: functional, organism-based
[21] = system: Rattus norvegicus; assay: Anti-thrombotic activity in Sprague-Dawley rat model of FeCl3-induced arterial thrombosis assessed as arterial thrombus length at 64 mg/kg, ig bid for 7 days by vernier caliper method (reference value: 10.5 +/- 0.83 mm); assay type: functional
[22] = system: Rattus norvegicus; assay: Anti-thrombotic activity in Sprague-Dawley rat model of FeCl3-induced arterial thrombosis assessed as arterial thrombus weight at 64 mg/kg, ig bid for 7 days (reference value: 12.94 +/- 0.7 mg); assay type: functional
[23] = system: Rattus norvegicus; assay: Anti-thrombotic activity in Sprague-Dawley rat model of FeCl3-induced venous thrombosis assessed as venous thrombus length at 64 mg/kg, ig bid for 7 days by vernier caliper method (reference value: 10.66 +/- 0.81 mm); assay type: functional
[24] = system: Rattus norvegicus; assay: Anti-thrombotic activity in Sprague-Dawley rat model of FeCl3-induced venous thrombosis assessed as venous thrombus weight at 64 mg/kg, ig bid for 7 days (reference value: 17.1 +/- 0.69 mg); assay type: functional
[25] = system: Mus musculus; assay: Toxicity in Balb/c mouse assessed as tail bleeding time at 92.1 mg/kg, ig bid for 7 days (reference value: 186 +/- 12 sec); assay type: organism-based; conditions: in vivo, po
[26] = system: Mus musculus; assay: Toxicity in Balb/c mouse assessed as red blood cell count at 92.1 mg/kg, ig bid for 7 days (reference value: 7.55 +/- 0.59 10^12/L); assay type: organism-based; conditions: in vivo, po, 168 h
[27] = system: Mus musculus; assay: Toxicity in Balb/c mouse assessed as platelet count at 92.1 mg/kg, ig bid for 7 days (reference value: 802 +/- 74 10^9/L); assay type: organism-based; conditions: in vivo, po, 168 h

## CC(=O)Oc1ccccc1C(=O)O[C@H]1CC[C@@]2(C)C(=CC[C@H]3[C@@H]4C[C@@H]5O[C@]6(CC[C@@H](C)CO6)[C@@H](C)[C@@H]5[C@@]4(C)CC[C@@H]32)C1
[1]
  Activity: 7.82 ×10⁹ /L
[2]
  Activity: 133 g/L
[3]
  Activity: 38.9%
[4]
  Activity: Non-toxic
[5]
  UI: 0.66
[6]
  Activity: Non-toxic
[7]
  Activity: Non-toxic
[8]
  Activity: Non-toxic
[9]
  Activity: Non-toxic
[10]
  Activity: Non-toxic
[11]
  Activity: 29.42%
[12]
  APTT: 22.6 s
[13]
  inhibition: Dose-dependent effect
[14]
  PT: 11.4 s
[15]
  TT: 46.7 s
[16]
  Activity: Active
[17]
  Activity: inactive
[18]
  Activity: inactive
[19]
  Activity: inactive
[20]
  Activity: inactive
[21]
  Activity: 5 mm
[22]
  Activity: 6.34 mg
[23]
  Activity: 5.83 mm
[24]
  Activity: 9.12 mg
[25]
  Time: 676 s
[26]
  Activity: 7.05 ×10¹² /L
[27]
  Activity: 790 ×10⁹ /L
